Literature values, collected in article PMC12472391, “Borylated Five-Membered Ring Iminosugars: Synthesis, Spectroscopic Analysis, and Biological Evaluation for Glycosidase Inhibition and Anticancer Properties for Application in Boron Neutron Capture Therapy (BNCT)—Part 1” (Pharmaceuticals, 2025).
pIC50: −log10 of the molar value. Counter-ions that a name gives are not always drawn. Like-named read-outs stand apart in the source and are kept apart here.

Columns and labels:
Conditions in all cases: cited from earlier work
[1] = molecular target: β-D-galactosidase (E. coli) (Escherichia coli, UniProt P00722)
β-D-galactosidase (E. coli), sequence (P00722 2-1024): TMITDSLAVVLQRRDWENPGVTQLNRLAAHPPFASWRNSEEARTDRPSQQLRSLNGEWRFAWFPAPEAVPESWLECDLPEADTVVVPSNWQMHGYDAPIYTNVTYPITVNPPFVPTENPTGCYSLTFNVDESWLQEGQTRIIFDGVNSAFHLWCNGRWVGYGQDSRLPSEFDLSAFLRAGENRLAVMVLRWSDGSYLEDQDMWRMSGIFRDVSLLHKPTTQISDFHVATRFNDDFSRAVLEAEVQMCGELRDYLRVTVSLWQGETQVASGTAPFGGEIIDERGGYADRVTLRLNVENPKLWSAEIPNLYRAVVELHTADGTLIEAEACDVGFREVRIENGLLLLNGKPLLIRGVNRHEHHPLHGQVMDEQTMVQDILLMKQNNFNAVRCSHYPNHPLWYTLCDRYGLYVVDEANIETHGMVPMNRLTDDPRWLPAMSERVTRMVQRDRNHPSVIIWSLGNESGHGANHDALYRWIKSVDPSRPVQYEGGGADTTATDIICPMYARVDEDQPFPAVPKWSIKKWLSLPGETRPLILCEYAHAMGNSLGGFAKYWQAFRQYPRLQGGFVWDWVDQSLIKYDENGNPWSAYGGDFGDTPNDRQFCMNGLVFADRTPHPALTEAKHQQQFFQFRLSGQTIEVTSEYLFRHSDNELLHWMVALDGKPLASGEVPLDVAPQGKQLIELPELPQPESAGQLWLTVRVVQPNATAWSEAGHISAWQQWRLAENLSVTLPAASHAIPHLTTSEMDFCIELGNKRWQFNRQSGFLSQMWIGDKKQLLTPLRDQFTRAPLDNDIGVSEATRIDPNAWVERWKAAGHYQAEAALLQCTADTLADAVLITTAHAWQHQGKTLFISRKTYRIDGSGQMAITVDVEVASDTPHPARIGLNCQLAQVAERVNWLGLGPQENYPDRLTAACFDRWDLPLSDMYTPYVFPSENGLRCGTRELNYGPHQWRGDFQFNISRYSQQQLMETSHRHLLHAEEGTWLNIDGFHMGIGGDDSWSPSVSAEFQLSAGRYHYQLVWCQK

[2] = tested on: β-D-mannosidase; set-up: method as in PMID 2706004
[3] = tested on: β-D-N-acetylhexosaminidase; set-up: method as in PMID 2706004
[4] = tested on: α-L-fucosidase; set-up: method as in PMID 2706004
[5] = tested on: α-D-mannosidase (lysosomal acidic); set-up: method as in PMID 2706004
[6] = tested on: α-D-mannosidase (Golgi II); set-up: method as in PMID 2706004
[7] = tested on: aldose reductase; set-up: method as in PMID 31557624
[8] = tested on: α-D-glucosidase; set-up: method as in PMID 31557624
[9] = tested on: amyloglucosidase (A. niger); set-up: method as in PMID 31944194
[10] = tested on: β-D-mannosidase (snail); set-up: method as in PMID 31944194
[11] = tested on: β-D-glucosidase (almond); set-up: method as in PMID 31944194
[12] = tested on: trehalase (porcine kidney); set-up: method as in PMID 31944194
[13] = tested on: α-D-mannosidase (lysosomal acidic); set-up: method as in PMID 8457203
[14] = tested on: α-D-glucosidase (rat intestinal maltase); set-up: method as in PMID 31944194
[15] = tested on: α-D-mannosidase (Golgi II); set-up: method as in PMID 8457203
[16] = molecular target: fruit fly Golgi II α-D-mannosidase; set-up: method as in PMID 29323461
[17] = tested on: α-L-fucosidase (bovine kidney); set-up: method as in PMID 31944194
[18] = molecular target: fruit fly lysosomal acidic α-D-mannosidase; set-up: method as in PMID 29323461
[19] = molecular target: α-D-glucosidase (rice) (Oryza sativa subsp. japonica, UniProt Q653V7); set-up: method as in PMID 31944194
α-D-glucosidase (rice), sequence (Q653V7 34-885): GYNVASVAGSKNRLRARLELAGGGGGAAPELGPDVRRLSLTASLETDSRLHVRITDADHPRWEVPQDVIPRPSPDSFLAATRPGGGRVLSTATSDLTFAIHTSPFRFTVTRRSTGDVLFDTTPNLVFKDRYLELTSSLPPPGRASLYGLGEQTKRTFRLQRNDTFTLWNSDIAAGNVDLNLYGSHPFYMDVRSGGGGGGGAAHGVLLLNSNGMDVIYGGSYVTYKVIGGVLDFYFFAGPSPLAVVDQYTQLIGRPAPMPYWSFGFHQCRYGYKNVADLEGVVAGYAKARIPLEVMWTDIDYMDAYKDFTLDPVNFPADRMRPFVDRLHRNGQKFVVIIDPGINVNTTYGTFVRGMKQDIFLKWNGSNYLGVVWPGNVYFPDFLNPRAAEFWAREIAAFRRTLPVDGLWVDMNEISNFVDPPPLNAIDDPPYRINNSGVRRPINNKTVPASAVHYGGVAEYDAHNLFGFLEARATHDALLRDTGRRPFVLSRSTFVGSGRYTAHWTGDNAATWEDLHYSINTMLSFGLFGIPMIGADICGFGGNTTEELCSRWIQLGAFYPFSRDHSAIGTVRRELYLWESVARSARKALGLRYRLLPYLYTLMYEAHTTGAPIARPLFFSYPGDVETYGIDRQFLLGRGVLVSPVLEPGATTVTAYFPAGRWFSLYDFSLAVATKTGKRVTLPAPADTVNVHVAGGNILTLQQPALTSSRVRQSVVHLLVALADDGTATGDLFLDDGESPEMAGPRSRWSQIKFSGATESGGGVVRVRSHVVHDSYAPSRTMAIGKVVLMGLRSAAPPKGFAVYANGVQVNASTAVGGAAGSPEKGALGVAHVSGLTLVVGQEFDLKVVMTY

[20] = tested on: α-D-galactosidase (coffee bean); set-up: method as in PMID 31944194
[21] = tested on: α-D-mannosidase (neutral); set-up: method as in PMID 8457203
[22] = molecular target: T1, α-D-glucosidase (yeast) (Saccharomyces cerevisiae, UniProt P53341); set-up: method as in PMID 31944194
T1 construct: purchased Sigma
T1 sequence (P53341 whole entry): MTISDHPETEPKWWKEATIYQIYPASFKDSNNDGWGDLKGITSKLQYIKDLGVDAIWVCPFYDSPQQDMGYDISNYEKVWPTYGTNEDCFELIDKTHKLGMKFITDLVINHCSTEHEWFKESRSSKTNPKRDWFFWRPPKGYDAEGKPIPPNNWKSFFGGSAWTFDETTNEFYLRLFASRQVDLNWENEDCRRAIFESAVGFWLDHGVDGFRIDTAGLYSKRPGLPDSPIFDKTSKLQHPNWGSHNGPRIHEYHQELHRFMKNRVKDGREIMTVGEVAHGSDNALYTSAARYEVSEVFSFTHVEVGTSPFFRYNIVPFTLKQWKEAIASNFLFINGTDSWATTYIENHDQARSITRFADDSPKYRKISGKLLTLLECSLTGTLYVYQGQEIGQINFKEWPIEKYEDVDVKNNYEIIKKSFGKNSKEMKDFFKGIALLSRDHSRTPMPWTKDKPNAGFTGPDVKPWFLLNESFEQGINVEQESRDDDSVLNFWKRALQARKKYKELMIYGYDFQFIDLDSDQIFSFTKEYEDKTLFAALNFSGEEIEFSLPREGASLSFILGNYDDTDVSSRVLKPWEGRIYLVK

[23] = molecular target: T2, α-D-mannosidase (Jack bean) (Canavalia ensiformis, UniProt C0HJB3); set-up: method as in PMID 31944194
T2 construct: purchased Sigma
T2 sequence (C0HJB3 1-981): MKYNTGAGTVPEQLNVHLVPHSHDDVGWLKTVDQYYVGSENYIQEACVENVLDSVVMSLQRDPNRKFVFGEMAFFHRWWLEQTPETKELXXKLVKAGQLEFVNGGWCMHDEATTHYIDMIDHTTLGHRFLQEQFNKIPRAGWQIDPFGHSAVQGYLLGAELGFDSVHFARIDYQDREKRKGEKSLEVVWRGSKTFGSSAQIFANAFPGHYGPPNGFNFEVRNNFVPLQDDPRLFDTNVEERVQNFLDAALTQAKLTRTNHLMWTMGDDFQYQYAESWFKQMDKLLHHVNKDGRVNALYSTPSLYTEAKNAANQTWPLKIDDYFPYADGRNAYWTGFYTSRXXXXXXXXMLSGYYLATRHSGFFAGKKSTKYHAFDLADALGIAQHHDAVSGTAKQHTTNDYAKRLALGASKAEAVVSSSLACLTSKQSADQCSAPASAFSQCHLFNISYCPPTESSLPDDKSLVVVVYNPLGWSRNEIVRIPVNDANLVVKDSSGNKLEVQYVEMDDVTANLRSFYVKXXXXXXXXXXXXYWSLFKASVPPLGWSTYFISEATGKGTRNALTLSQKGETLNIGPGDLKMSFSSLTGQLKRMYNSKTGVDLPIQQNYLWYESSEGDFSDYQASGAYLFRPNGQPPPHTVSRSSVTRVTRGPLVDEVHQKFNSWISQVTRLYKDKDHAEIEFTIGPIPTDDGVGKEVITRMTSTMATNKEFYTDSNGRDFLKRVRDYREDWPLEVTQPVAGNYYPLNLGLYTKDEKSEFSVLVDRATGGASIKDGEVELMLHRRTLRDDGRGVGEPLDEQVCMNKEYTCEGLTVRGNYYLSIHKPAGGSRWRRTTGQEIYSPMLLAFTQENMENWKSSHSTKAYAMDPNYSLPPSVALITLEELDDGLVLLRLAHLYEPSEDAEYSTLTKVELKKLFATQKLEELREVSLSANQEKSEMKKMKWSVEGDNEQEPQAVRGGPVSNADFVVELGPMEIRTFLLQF

[24] = molecular target: T3, β-D-glucuronidase (E. coli) (Escherichia coli, UniProt P05804); set-up: method as in PMID 31944194
T3 construct: purchased Sigma-Aldrich Co
T3 sequence (P05804 whole entry): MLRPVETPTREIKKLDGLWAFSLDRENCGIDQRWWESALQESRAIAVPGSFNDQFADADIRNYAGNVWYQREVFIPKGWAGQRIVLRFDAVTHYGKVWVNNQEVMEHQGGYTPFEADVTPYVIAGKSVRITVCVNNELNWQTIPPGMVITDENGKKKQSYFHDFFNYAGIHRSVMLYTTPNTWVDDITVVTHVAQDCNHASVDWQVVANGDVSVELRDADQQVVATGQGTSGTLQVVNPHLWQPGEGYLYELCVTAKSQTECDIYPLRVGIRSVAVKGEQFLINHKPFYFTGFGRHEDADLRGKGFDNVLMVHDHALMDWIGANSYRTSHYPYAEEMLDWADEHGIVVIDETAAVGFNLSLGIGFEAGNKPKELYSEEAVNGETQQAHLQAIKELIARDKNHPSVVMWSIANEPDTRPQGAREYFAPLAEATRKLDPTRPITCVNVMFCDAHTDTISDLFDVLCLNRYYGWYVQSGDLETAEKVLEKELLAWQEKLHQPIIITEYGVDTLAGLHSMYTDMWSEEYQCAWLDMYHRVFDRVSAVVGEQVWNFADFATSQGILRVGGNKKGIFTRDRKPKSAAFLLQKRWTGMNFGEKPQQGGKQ

[25] = molecular target: T4, β-D-galactosidase (bovine liver) (Bos taurus, UniProt Q58D55); set-up: method as in PMID 31944194
T4 sequence (Q58D55 28-653): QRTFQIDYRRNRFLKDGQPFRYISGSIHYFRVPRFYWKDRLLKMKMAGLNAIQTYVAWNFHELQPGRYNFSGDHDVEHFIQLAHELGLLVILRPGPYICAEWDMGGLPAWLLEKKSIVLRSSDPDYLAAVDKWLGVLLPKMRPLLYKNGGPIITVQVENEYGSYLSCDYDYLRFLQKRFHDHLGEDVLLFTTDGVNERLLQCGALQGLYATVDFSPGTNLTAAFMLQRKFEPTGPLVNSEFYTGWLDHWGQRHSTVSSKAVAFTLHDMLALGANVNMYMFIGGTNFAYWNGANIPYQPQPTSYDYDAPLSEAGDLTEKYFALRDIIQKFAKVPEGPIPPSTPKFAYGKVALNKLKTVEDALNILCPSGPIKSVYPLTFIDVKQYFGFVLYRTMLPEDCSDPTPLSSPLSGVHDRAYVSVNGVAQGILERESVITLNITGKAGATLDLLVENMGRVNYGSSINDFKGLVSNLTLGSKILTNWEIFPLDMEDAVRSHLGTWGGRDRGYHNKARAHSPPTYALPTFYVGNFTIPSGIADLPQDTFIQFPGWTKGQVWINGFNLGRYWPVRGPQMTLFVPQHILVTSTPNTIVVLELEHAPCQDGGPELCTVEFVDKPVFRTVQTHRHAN

[26] = tested on: α-L-rhamnosidase (P. decumbens); set-up: method as in PMID 31944194
[27] = molecular target: β-D-glucosidase (human lysosome) (Homo sapiens, UniProt P04062); set-up: method as in PMID 31944194
β-D-glucosidase (human lysosome), sequence (P04062 40-536): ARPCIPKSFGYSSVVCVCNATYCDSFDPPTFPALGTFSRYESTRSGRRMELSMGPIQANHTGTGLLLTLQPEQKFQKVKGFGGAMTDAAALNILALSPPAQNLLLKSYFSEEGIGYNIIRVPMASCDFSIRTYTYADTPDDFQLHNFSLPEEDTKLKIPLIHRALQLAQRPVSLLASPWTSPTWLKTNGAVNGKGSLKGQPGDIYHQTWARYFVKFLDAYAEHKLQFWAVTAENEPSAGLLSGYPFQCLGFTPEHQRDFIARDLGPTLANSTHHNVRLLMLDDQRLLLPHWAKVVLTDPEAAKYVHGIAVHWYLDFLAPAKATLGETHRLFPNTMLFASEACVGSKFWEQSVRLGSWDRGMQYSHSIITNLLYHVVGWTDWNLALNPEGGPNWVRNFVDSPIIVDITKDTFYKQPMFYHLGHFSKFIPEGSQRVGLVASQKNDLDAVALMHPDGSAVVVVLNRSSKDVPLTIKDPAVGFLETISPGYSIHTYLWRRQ

[28] = tested on: β-D-glucosidase (bovine liver); set-up: method as in PMID 31944194
[29] = molecular target: T2, α-D-mannosidase (Jack bean)
[30] = tested on: α-D-galactosidase (coffee bean)

Q: Which “β-D-galactosidase (E. coli) inhibition” value [1] does the source give for Cl.OC[C@@H](O)[C@H]1[C@H](O)[C@H](O)CN1Cc1ccccc1B(O)O [N-(2-Methylphenylboronic acid)-1,4-dideoxy-1,4-imino-D-talitol.HCl] here?
A: The value was “β-D-galactosidase (E. coli) (44–55%)”.

Q: What does the source list for OC[C@@H](O)[C@@H]1[C@@H](O)[C@@H](O)CN1Cc1ccccc1 [N-Benzyl-1,4-dideoxy-1,4-imino-D-allitol]?
A: β-D-mannosidase inhibition [2]: 0%; β-D-N-acetylhexosaminidase inhibition [3]: 35%; α-L-fucosidase inhibition [4]: α-L-fucosidase (76%); α-D-mannosidase lysosomal acidic inhibition [5]: 7%; α-D-mannosidase Golgi II inhibition [6]: 11%

Q: For OC[C@@H](O)[C@H]1[C@H](O)[C@@H](O)CN1Cc1ccccc1 [N-Benzyl-1,4-dideoxy-1,4-imino-D-galactitol], which aldose reductase inhibition [7] is on record?
A: The aldose reductase inhibition was 32.6%.

Q: What about the α-D-glucosidase inhibition [8] of the same compound?
A: The α-D-glucosidase inhibition was 93.2%.

Q: What about the pIC50 ([8]; read-out: IC50 towards α-D-glucosidase) of the same compound?
A: The pIC50 was 4.39.

Q: What does the source list for OC[C@@H](O)[C@@H]1[C@H](O)[C@H](O)CN1Cc1ccccc1 [N-Benzyl-1,4-dideoxy-1,4-imino-D-mannitol.HCl]?
A: amyloglucosidase (A. niger) inhibition [9]: 11.4%; β-D-mannosidase (snail) inhibition [10]: 4.4%; β-D-glucosidase (almond) inhibition [11]: 6.1%; trehalase (porcine kidney) inhibition [12]: 0%; α-D-mannosidase lysosomal acidic inhibition [13]: 34%; α-D-glucosidase (rat intestinal maltase) inhibition [14]: 16.6%; α-D-mannosidase Golgi II inhibition [15]: 72%; pIC50 [16]: 3.16; α-L-fucosidase (bovine kidney) inhibition [17]: 8.4%; pIC50 [18]: 2.82; α-D-glucosidase (rice) inhibition [19]: 34.2%; α-D-galactosidase (coffee bean) inhibition [20]: 8.8%; α-D-mannosidase neutral inhibition [21]: 44%; α-D-glucosidase (yeast) inhibition [22]: 6.5%; α-D-mannosidase (Jack bean) inhibition [23]: 27%; β-D-glucuronidase (E. coli) inhibition [24]: 9.8%; β-D-galactosidase (bovine liver) inhibition [25]: 7.9%; α-L-rhamnosidase (P. decumbens) inhibition [26]: 11.5%; β-D-glucosidase (human lysosome) inhibition [27]: 4.7%; β-D-glucosidase (bovine liver) inhibition [28]: 9.5%

Q: For OC[C@@H](O)[C@H]1[C@H](O)[C@H](O)CN1Cc1ccccc1 [N-Benzyl-1,4-dideoxy-1,4-imino-D-talitol.HCl], which “β-D-galactosidase (E. coli) inhibition” value [1] is on record?
A: The value was “little inhibition”.

Q: What about the “α-D-mannosidase (Jack bean) inhibition” value [29] of the same compound?
A: Its value is “little inhibition”.

Q: What about the “α-D-galactosidase (coffee bean) inhibition” value [30] of the same compound?
A: Its value is “little inhibition”.
